± gives the standard deviation of the averaged measurements.
How the values were obtained:
[1] = compound: T1, C=CC(=O)Nc1cc2c(Nc3ccc(F)c(Cl)c3)ncnc2cc1OCCCN1CCOCC1 [CANERTINIB]; test: surviving fraction relative to DMSO-only wells; higher = less growth inhibition; conditions: exposure time: 5 days
Method in brief: (§1)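 Viability was determined by CellTiter-Glo luminescence, expressed as surviving fraction normalised to the median of DMSO-only wells. The cells were log-phase tumour cell lines seeded at 250–500 per well in 384-well plates and, after 24 hours, exposed continuously for five days to inhibitors at 0.5, 1, 5, 10, 50, 100, 500 and 1000 nM. Three screens per line were run, keeping only lines with replicate Pearson r >0.7 and median Z' >0.3.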

[2] = compound: T2, CC1(C)CC(=O)c2c(C(F)(F)F)nn(-c3ccc(C(N)=O)c(N[C@H]4CC[C@H](OC(=O)CN)CC4)c3)c2C1 [SNX-5422]; test: as above; conditions: exposure time: 5 days
Method in brief: as §1

[3] = compound: T3, CCCCCCCCCCCCCCCC(=O)Nc1ccn([C@@H]2O[C@H](CO)[C@@H](O)[C@@H]2C#N)c(=O)n1 [SAPACITABINE]; test: as above; conditions: exposure time: 5 days
Method in brief: as §1

[4] = compound: T4, CC[C@@H]1C(=O)N(C)c2cnc(Nc3ccc(C(=O)NC4CCN(C)CC4)cc3OC)nc2N1C1CCCC1 [BI-2536]; test: as above; conditions: exposure time: 5 days
Method in brief: as §1

[5] = compound: T5, CN(C)C/C=C/C(=O)Nc1cc2c(Nc3ccc(F)c(Cl)c3)ncnc2cc1O[C@H]1CCOC1 [AFATINIB]; test: as above; conditions: exposure time: 5 days
Method in brief: as §1

[6] = compound: T6, CNC(=O)c1ccc(N2C(=S)N(c3ccc(C#N)c(C(F)(F)F)c3)C(=O)C2(C)C)cc1F [MDV3100]; test: as above; conditions: exposure time: 5 days
Method in brief: as §1

[7] = compound: Cn1cc(C2=Nc3cc(NC(=O)C(N)C4CCCCC4)cc4c3C2=CNNC4=O)cn1; test: as above; conditions: exposure time: 5 days
Method in brief: as §1

[8] = compound: T7, Nc1nc2[nH]cnc2c(=S)[nH]1 [TIOGUANINE]; test: as above; conditions: exposure time: 5 days
Method in brief: as §1

[9] = compound: T1, CANERTINIB; test: area under dose-response curve of surviving fraction (unscaled, Aref=0) (surviving fraction x log10(nM)); higher = more resistant; conditions: exposure time: 5 days; dose range 0.5-1000 nM
Method in brief: (§2)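 Each tumour cell line was screened three times in 384-well plates, receiving eight inhibitor concentrations from 0.5 to 1000 nM for five days. CellTiter-Glo luminescence gave viability, normalised to DMSO-only wells. Using the drc R package, surviving fractions were fitted with 3-parameter logistic dose-response curves, and the unscaled activity area over log10 dose (Aref = 0) was taken as the area under the curve.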

[10] = compound: T2, SNX-5422; test: as above; conditions: exposure time: 5 days; dose range 0.5-1000 nM
Method in brief: as §2

[11] = compound: T3, SAPACITABINE; test: as above; conditions: exposure time: 5 days; dose range 0.5-1000 nM
Method in brief: as §2

[12] = compound: T4, BI-2536; test: as above; conditions: exposure time: 5 days; dose range 0.5-1000 nM
Method in brief: as §2

[13] = compound: T5, AFATINIB; test: as above; conditions: exposure time: 5 days; dose range 0.5-1000 nM
Method in brief: as §2

[14] = compound: T6, MDV3100; test: as above; conditions: exposure time: 5 days; dose range 0.5-1000 nM
Method in brief: as §2

[15] = compound: Cn1cc(C2=Nc3cc(NC(=O)C(N)C4CCCCC4)cc4c3C2=CNNC4=O)cn1; test: as above; conditions: exposure time: 5 days; dose range 0.5-1000 nM
Method in brief: as §2

[16] = compound: T7, TIOGUANINE; test: as above; conditions: exposure time: 5 days; dose range 0.5-1000 nM
Method in brief: as §2

HCC1395 BREAST showed a surviving fraction ([1]; 0.5 nM) of 0.955 ± 0.095, a surviving fraction ([1]; 1 nM) of 0.901 ± 0.022 and a surviving fraction ([1]; 5 nM) of 1 ± 0.15. For the same test system, the surviving fraction ([1]; 10 nM) was 0.905 ± 0.059, the surviving fraction ([1]; 50 nM) was 1.13 ± 0.068 and the surviving fraction ([1]; 100 nM) was 1.05 ± 0.021. The surviving fraction ([1]; 500 nM) was 1.06 ± 0.11, the surviving fraction ([1]; 1000 nM) was 1.01 ± 0.066 and the surviving fraction ([2]; 0.5 nM) was 0.865 ± 0.17. For the same test system, the surviving fraction ([2]; 1 nM) was 0.862 ± 0.071, the surviving fraction ([2]; 5 nM) was 0.943 ± 0.15 and the surviving fraction ([2]; 10 nM) was 1.16 ± 0.23. For the same test system, the surviving fraction ([2]; 50 nM) was 0.975 ± 0.15, the surviving fraction ([2]; 100 nM) was 1.15 ± 0.066 and the surviving fraction ([2]; 500 nM) was 0.818 ± 0.1. For the same test system, the surviving fraction ([2]; 1000 nM) was 0.893 ± 0.05, the surviving fraction ([3]; 0.5 nM) was 0.861 ± 0.028 and the surviving fraction ([3]; 1 nM) was 0.828 ± 0.045. It also gave a surviving fraction ([3]; 5 nM) of 0.949 ± 0.035, a surviving fraction ([3]; 10 nM) of 0.877 ± 0.04 and a surviving fraction ([3]; 50 nM) of 0.935 ± 0.14. For the same test system, the surviving fraction ([3]; 100 nM) was 0.889 ± 0.028, the surviving fraction ([3]; 500 nM) was 0.808 ± 0.16 and the surviving fraction ([3]; 1000 nM) was 0.715 ± 0.15. For the same test system, the surviving fraction ([4]; 0.5 nM) was 1.04 ± 0.12, the surviving fraction ([4]; 1 nM) was 0.9 ± 0.043 and the surviving fraction ([4]; 5 nM) was 0.709 ± 0.18. The surviving fraction ([4]; 10 nM) was 0.623 ± 0.15, the surviving fraction ([4]; 50 nM) was 0.729 ± 0.071 and the surviving fraction ([4]; 100 nM) was 0.661 ± 0.05. For the same test system, the surviving fraction ([4]; 500 nM) was 1.11 ± 0.19, the surviving fraction ([4]; 1000 nM) was 0.78 ± 0.029 and the surviving fraction ([5]; 0.5 nM) was 1.05 ± 0.14. For the same test system, the surviving fraction ([5]; 1 nM) was 1.14 ± 0.1, the surviving fraction ([5]; 5 nM) was 1.03 ± 0.043 and the surviving fraction ([5]; 10 nM) was 1.13 ± 0.046. The surviving fraction ([5]; 50 nM) was 1.01 ± 0.15, the surviving fraction ([5]; 100 nM) was 1.12 ± 0.026 and the surviving fraction ([5]; 500 nM) was 1.05 ± 0.23. The surviving fraction ([5]; 1000 nM) was 0.92 ± 0.12, the surviving fraction ([6]; 0.5 nM) was 1.18 ± 0.027 and the surviving fraction ([6]; 1 nM) was 1.14 ± 0.089. It also gave a surviving fraction ([6]; 5 nM) of 1.24 ± 0.075, a surviving fraction ([6]; 10 nM) of 1.08 ± 0.19 and a surviving fraction ([6]; 50 nM) of 1.18 ± 0.15. The surviving fraction ([6]; 100 nM) was 1.1 ± 0.15, the surviving fraction ([6]; 500 nM) was 1.18 ± 0.16 and the surviving fraction ([6]; 1000 nM) was 1.16 ± 0.024. For the same test system, the surviving fraction ([7]; 0.5 nM) was 0.805 ± 0.1, the surviving fraction ([7]; 1 nM) was 0.961 ± 0.16 and the surviving fraction ([7]; 5 nM) was 0.938 ± 0.13. The surviving fraction ([7]; 10 nM) was 0.975 ± 0.11, the surviving fraction ([7]; 50 nM) was 0.766 ± 0.071 and the surviving fraction ([7]; 100 nM) was 0.68 ± 0.17. It also gave a surviving fraction ([7]; 500 nM) of 0.578 ± 0.088, a surviving fraction ([7]; 1000 nM) of 0.521 ± 0.065 and a surviving fraction ([8]; 0.5 nM) of 0.999 ± 0.06. For the same test system, the surviving fraction ([8]; 1 nM) was 1.12 ± 0.064, the surviving fraction ([8]; 5 nM) was 0.968 ± 0.1 and the surviving fraction ([8]; 10 nM) was 1.11 ± 0.054. The surviving fraction ([8]; 50 nM) was 1.05 ± 0.039, the surviving fraction ([8]; 100 nM) was 1.16 ± 0.04 and the surviving fraction ([8]; 500 nM) was 1.11 ± 0.086. For the same test system, the surviving fraction ([8]; 1000 nM) was 1.09 ± 0.081, the “area under dose-response curve” value [9] was 3.33 and the “area under dose-response curve” value [10] was 3.15. The “area under dose-response curve” value [11] was 2.91, the “area under dose-response curve” value [12] was 2.69 and the “area under dose-response curve” value [13] was 3.5. For the same test system, the “area under dose-response curve” value [14] was 3.87, the “area under dose-response curve” value [15] was 2.62 and the “area under dose-response curve” value [16] was 3.56.
Work on CME SYNOVIAL yielded a surviving fraction ([1]; 0.5 nM) of 0.93 ± 0.083, a surviving fraction ([1]; 1 nM) of 0.969 ± 0.098 and a surviving fraction ([1]; 5 nM) of 0.918 ± 0.065. For the same test system, the surviving fraction ([1]; 10 nM) was 0.888 ± 0.087, the surviving fraction ([1]; 50 nM) was 1.18 ± 0.034 and the surviving fraction ([1]; 100 nM) was 1.2 ± 0.11. For the same test system, the surviving fraction ([1]; 500 nM) was 1.05 ± 0.033, the surviving fraction ([1]; 1000 nM) was 0.876 ± 0.11 and the surviving fraction ([2]; 0.5 nM) was 1.05 ± 0.06. For the same test system, the surviving fraction ([2]; 1 nM) was 1.21 ± 0.062, the surviving fraction ([2]; 5 nM) was 1.23 ± 0.074 and the surviving fraction ([2]; 10 nM) was 1.35 ± 0.077. The surviving fraction ([2]; 50 nM) was 1.01 ± 0.18, the surviving fraction ([2]; 100 nM) was 0.276 ± 0.0067 and the surviving fraction ([2]; 500 nM) was 0.287 ± 0.011. The surviving fraction ([2]; 1000 nM) was 0.365 ± 0.034, the surviving fraction ([3]; 0.5 nM) was 0.788 ± 0.087 and the surviving fraction ([3]; 1 nM) was 0.415 ± 0.05. For the same test system, the surviving fraction ([3]; 5 nM) was 0.703 ± 0.091, the surviving fraction ([3]; 10 nM) was 0.027 ± 0.011 and the surviving fraction ([3]; 50 nM) was 0.922 ± 0.077. It also gave a surviving fraction ([3]; 100 nM) of 0.379 ± 0.075, a surviving fraction ([3]; 500 nM) of 0.248 ± 0.016 and a surviving fraction ([3]; 1000 nM) of 0.034 ± 0.0076. The surviving fraction ([4]; 0.5 nM) was 1.02 ± 0.077, the surviving fraction ([4]; 1 nM) was 0.988 ± 0.11 and the surviving fraction ([4]; 5 nM) was 0.683 ± 0.18. The surviving fraction ([4]; 10 nM) was 0.378 ± 0.031, the surviving fraction ([4]; 50 nM) was 0.278 ± 0.023 and the surviving fraction ([4]; 100 nM) was 0.237 ± 0.01. It also gave a surviving fraction ([4]; 500 nM) of 0.259 ± 0.004, a surviving fraction ([4]; 1000 nM) of 0.279 ± 0.011 and a surviving fraction ([5]; 0.5 nM) of 1.34 ± 0.1. It also gave a surviving fraction ([5]; 1 nM) of 1.37 ± 0.18, a surviving fraction ([5]; 5 nM) of 1.33 ± 0.13 and a surviving fraction ([5]; 10 nM) of 1.28 ± 0.17. For the same test system, the surviving fraction ([5]; 50 nM) was 1.44 ± 0.19, the surviving fraction ([5]; 100 nM) was 1.32 ± 0.12 and the surviving fraction ([5]; 500 nM) was 1.26 ± 0.062. For the same test system, the surviving fraction ([5]; 1000 nM) was 0.733 ± 0.066, the surviving fraction ([6]; 0.5 nM) was 1.2 ± 0.075 and the surviving fraction ([6]; 1 nM) was 0.852 ± 0.11. The surviving fraction ([6]; 5 nM) was 1.09 ± 0.089, the surviving fraction ([6]; 10 nM) was 0.18 ± 0.044 and the surviving fraction ([6]; 50 nM) was 1.22 ± 0.053. It also gave a surviving fraction ([6]; 100 nM) of 1.09 ± 0.13, a surviving fraction ([6]; 500 nM) of 1.16 ± 0.1 and a surviving fraction ([6]; 1000 nM) of 0.451 ± 0.068. It also gave a surviving fraction ([7]; 0.5 nM) of 1.243 ± 0.0098, a surviving fraction ([7]; 1 nM) of 1.27 ± 0.03 and a surviving fraction ([7]; 5 nM) of 1.3 ± 0.06. For the same test system, the surviving fraction ([7]; 10 nM) was 1.23 ± 0.059, the surviving fraction ([7]; 50 nM) was 1.13 ± 0.049 and the surviving fraction ([7]; 100 nM) was 1.02 ± 0.065. The surviving fraction ([7]; 500 nM) was 0.733 ± 0.036, the surviving fraction ([7]; 1000 nM) was 0.414 ± 0.0087 and the surviving fraction ([8]; 0.5 nM) was 1.07 ± 0.067. For the same test system, the surviving fraction ([8]; 1 nM) was 1.22 ± 0.12, the surviving fraction ([8]; 5 nM) was 1.16 ± 0.051 and the surviving fraction ([8]; 10 nM) was 1.22 ± 0.03. The surviving fraction ([8]; 50 nM) was 1.29 ± 0.021, the surviving fraction ([8]; 100 nM) was 1.32 ± 0.19 and the surviving fraction ([8]; 500 nM) was 1.24 ± 0.054. For the same test system, the surviving fraction ([8]; 1000 nM) was 1.08 ± 0.18, the “area under dose-response curve” value [9] was 3.18 and the “area under dose-response curve” value [10] was 2.5. The “area under dose-response curve” value [11] was 1.45, the “area under dose-response curve” value [12] was 1.64 and the “area under dose-response curve” value [13] was 4.36. For the same test system, the “area under dose-response curve” value [14] was 2.99 and the “area under dose-response curve” value [16] was 3.97.

From the supplement of paper PMC6045584
